In ChEMBL document CHEMBL1201862, “PubChem BioAssay data set” (2004):
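How tested: cells in 96-well plates exposed to compound for 48 hours at five concentrations. Here, GI50 denotes the concentration required for 50% inhibition of growth.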 The source made the active and inactive calls. Cut-off read from the data, not from the text of the source: active = GI50 up to about 1.1 µM and inactive = higher.

Experiments:
Test in all cases: growth of human tumour cells (NCI), 48 h
SK-OV-3 = tested on: SK-OV-3
PC-3 = tested on: PC-3
SK-MEL-5 = tested on: SK-MEL-5
A498 = tested on: A498
MDA-N = tested on: MDA-N
COLO 205 = tested on: COLO 205
MCF7 = tested on: MCF7
SF-268 = tested on: SF-268
SNB-19 = tested on: SNB-19
LOX IMVI = tested on: LOX IMVI
NCI/ADR-RES = tested on: NCI/ADR-RES
HCT-116 = tested on: HCT-116
UO-31 = tested on: UO-31
HCT-15 = tested on: HCT-15
SNB-75 = tested on: SNB-75
HOP-62 = tested on: HOP-62
OVCAR-5 = tested on: OVCAR-5
Hs-578T = tested on: Hs-578T
NCI-H226 = tested on: NCI-H226
HL-60 = tested on: HL-60

N#C[C@@H](c1ccccn1)c1ncccc1[N+](=O)[O-]
GI50 (SK-OV-3): > 100 µM (inactive) | GI50 (PC-3): > 100 µM (inactive) | GI50 (SK-MEL-5): 90.2 µM (inactive) | GI50 (A498): > 100 µM (inactive) | GI50 (MDA-N): > 100 µM (inactive) | GI50 (COLO 205): > 100 µM (inactive) | GI50 (MCF7): 74 µM (inactive) | GI50 (SF-268): > 100 µM (inactive) | GI50 (SNB-19): > 100 µM (inactive) | GI50 (LOX IMVI): > 100 µM (inactive) | GI50 (NCI/ADR-RES): > 100 µM (inactive) | GI50 (HCT-116): > 100 µM (inactive) | GI50 (UO-31): > 100 µM (inactive) | GI50 (HCT-15): > 100 µM | GI50 (SNB-75): > 100 µM (inactive) | GI50 (HOP-62): > 100 µM (inactive) | GI50 (OVCAR-5): > 100 µM (inactive) | GI50 (Hs-578T): > 100 µM (inactive)

FC(F)(Sc1nc2ccccc2[nH]1)c1nc2ccccc2o1
GI50 (SK-OV-3): > 100 µM (inactive) | GI50 (PC-3): > 100 µM (inactive) | GI50 (SK-MEL-5): > 100 µM (inactive) | GI50 (A498): > 100 µM (inactive) | GI50 (NCI-H226): > 100 µM (inactive) | GI50 (MDA-N): > 100 µM (inactive) | GI50 (COLO 205): > 100 µM (inactive) | GI50 (MCF7): > 100 µM (inactive) | GI50 (SF-268): > 100 µM (inactive) | GI50 (NCI/ADR-RES): > 100 µM (inactive) | GI50 (HCT-116): > 100 µM (inactive) | GI50 (UO-31): > 100 µM (inactive) | GI50 (HCT-15): > 100 µM | GI50 (SNB-75): > 100 µM (inactive) | GI50 (HOP-62): > 100 µM (inactive) | GI50 (OVCAR-5): > 100 µM (inactive) | GI50 (Hs-578T): > 100 µM (inactive)

Sc1ncc(-c2cncc(-c3cnc(S)nc3)n2)cn1
GI50 (SK-OV-3): > 100 µM (inactive) | GI50 (PC-3): > 100 µM (inactive) | GI50 (HL-60): > 100 µM (inactive) | GI50 (SK-MEL-5): > 100 µM (inactive) | GI50 (A498): 52.2 µM (inactive) | GI50 (NCI-H226): > 100 µM (inactive) | GI50 (MDA-N): > 100 µM (inactive) | GI50 (COLO 205): > 100 µM (inactive) | GI50 (MCF7): > 100 µM (inactive) | GI50 (SF-268): > 100 µM (inactive) | GI50 (SNB-19): > 100 µM (inactive) | GI50 (NCI/ADR-RES): > 100 µM (inactive) | GI50 (HCT-116): > 100 µM (inactive) | GI50 (UO-31): > 100 µM (inactive) | GI50 (HCT-15): > 100 µM | GI50 (SNB-75): > 100 µM (inactive) | GI50 (OVCAR-5): > 100 µM (inactive) | GI50 (Hs-578T): > 100 µM (inactive)

CSc1cc(Cl)c(C)cc1S(=O)(=O)NC(=O)NNc1ccccn1
GI50 (SK-OV-3): > 100 µM (inactive) | GI50 (PC-3): > 100 µM (inactive) | GI50 (SK-MEL-5): > 100 µM (inactive) | GI50 (A498): > 100 µM (inactive) | GI50 (NCI-H226): > 100 µM (inactive) | GI50 (MDA-N): > 100 µM (inactive) | GI50 (COLO 205): > 100 µM (inactive) | GI50 (MCF7): > 100 µM (inactive) | GI50 (SF-268): > 100 µM (inactive) | GI50 (SNB-19): > 100 µM (inactive) | GI50 (LOX IMVI): > 100 µM (inactive) | GI50 (NCI/ADR-RES): > 100 µM (inactive) | GI50 (HCT-116): > 100 µM (inactive) | GI50 (HCT-15): > 100 µM | GI50 (SNB-75): 5.21 µM (inactive) | GI50 (HOP-62): > 100 µM (inactive) | GI50 (OVCAR-5): > 100 µM (inactive) | GI50 (Hs-578T): > 100 µM (inactive)

CCCCC1Nc2ccccc2-c2ccnc(Cl)c21 (centres undefined)
GI50 (SK-OV-3): 20.3 µM (inactive) | GI50 (PC-3): 25.8 µM (inactive) | GI50 (HL-60): 17.8 µM (inactive) | GI50 (SK-MEL-5): 15.2 µM (inactive) | GI50 (A498): 16.8 µM (inactive) | GI50 (NCI-H226): 17.6 µM (inactive) | GI50 (MDA-N): 15.6 µM (inactive) | GI50 (COLO 205): 15.7 µM (inactive) | GI50 (MCF7): 35 µM (inactive) | GI50 (SF-268): 23.1 µM (inactive) | GI50 (SNB-19): 24.1 µM (inactive) | GI50 (LOX IMVI): 16.6 µM (inactive) | GI50 (NCI/ADR-RES): 27.7 µM (inactive) | GI50 (HCT-116): 15.7 µM (inactive) | GI50 (UO-31): 20 µM (inactive) | GI50 (HCT-15): 16.9 µM | GI50 (SNB-75): 13.5 µM (inactive) | GI50 (HOP-62): 19.3 µM (inactive) | GI50 (Hs-578T): 15 µM (inactive)

CC1(/C=C/CCSc2ccccc2)CC(=O)C2CC1C2(C)C (centres undefined)
GI50 (SK-OV-3): > 72.4 µM (inactive) | GI50 (PC-3): 6.08 µM (inactive) | GI50 (SK-MEL-5): 8.71 µM (inactive) | GI50 (A498): 44.7 µM (inactive) | GI50 (NCI-H226): 24.8 µM (inactive) | GI50 (MDA-N): 26.9 µM (inactive) | GI50 (COLO 205): 30 µM (inactive) | GI50 (MCF7): 22.6 µM (inactive) | GI50 (SF-268): 28.5 µM (inactive) | GI50 (SNB-19): 35.8 µM (inactive) | GI50 (LOX IMVI): 14.8 µM (inactive) | GI50 (NCI/ADR-RES): 11 µM (inactive) | GI50 (HCT-116): 13 µM (inactive) | GI50 (UO-31): 5.61 µM (inactive) | GI50 (HCT-15): 15.8 µM | GI50 (SNB-75): 11.2 µM (inactive) | GI50 (HOP-62): 36.9 µM (inactive) | GI50 (OVCAR-5): 44.9 µM (inactive) | GI50 (Hs-578T): 22.9 µM (inactive)

O=C1/C(=C/c2cccs2)N=C(c2ccccc2)N1c1nc2ccccc2s1
GI50 (PC-3): > 100 µM (inactive) | GI50 (HL-60): > 100 µM (inactive) | GI50 (SK-MEL-5): > 100 µM (inactive) | GI50 (A498): > 100 µM (inactive) | GI50 (NCI-H226): > 100 µM (inactive) | GI50 (MDA-N): 91.6 µM (inactive) | GI50 (MCF7): 49.9 µM (inactive) | GI50 (SF-268): 7.74 µM (inactive) | GI50 (SNB-19): > 100 µM (inactive) | GI50 (LOX IMVI): > 100 µM (inactive) | GI50 (NCI/ADR-RES): 64.4 µM (inactive) | GI50 (HCT-116): 38.4 µM (inactive) | GI50 (UO-31): 24.2 µM (inactive) | GI50 (HCT-15): 82.4 µM | GI50 (HOP-62): > 100 µM (inactive) | GI50 (OVCAR-5): > 100 µM (inactive) | GI50 (Hs-578T): 14.1 µM (inactive)

Oc1ccc(-c2nc3cc(C(F)(F)F)ccc3n2CC2CCCN3CCCCC23)cc1 (centres undefined)
GI50 (SK-OV-3): 12.6 µM (inactive) | GI50 (PC-3): 14.1 µM (inactive) | GI50 (HL-60): 3.01 µM (inactive) | GI50 (SK-MEL-5): 14.1 µM (inactive) | GI50 (A498): 14.9 µM (inactive) | GI50 (NCI-H226): 16.3 µM (inactive) | GI50 (MDA-N): 16.2 µM (inactive) | GI50 (MCF7): 12.6 µM (inactive) | GI50 (SF-268): 14.8 µM (inactive) | GI50 (LOX IMVI): 15.4 µM (inactive) | GI50 (NCI/ADR-RES): 16.5 µM (inactive) | GI50 (HCT-116): 15.7 µM (inactive) | GI50 (UO-31): 11.7 µM (inactive) | GI50 (HCT-15): 16.1 µM | GI50 (SNB-75): 14.9 µM (inactive) | GI50 (HOP-62): 12.1 µM (inactive) | GI50 (OVCAR-5): 13.8 µM (inactive) | GI50 (Hs-578T): 15.8 µM (inactive)
